# In patent US20130029381A1, “MICROORGANISMS FOR THE PRODUCTION OF 1,4-BUTANEDIOL, 4-HYDROXYBUTANAL, 4-HYDROXYBUTYRYL-COA, PUTRESCINE AND RELATED COMPOUNDS, AND METHODS RELATED THERETO” (GENOMATICA, INC., priority 2009, published 2013):
# System: CCCC=O
# Experiment: ADH enzyme assay of Adh1 (084), Km for aldehyde substrates
# Assay type: biochemical, Geobacillus thermoglucosidasius
# Details: other: reductive ADH assay, enzyme expressed in E. coli; pH 7.5
# Source text: (§1) The Adh1 enzyme (084) expressed very well from its native gene in E. coli (see FIG. 32A).
row,Molecule,Km
1,Adh1 enzyme (084) (Geobacillus sp. M10EXG),1.2 mM

# System: O=CCCCO
# Experiment: as above
# Assay type: biochemical, Geobacillus thermoglucosidasius
# Details: other: reductive ADH assay, enzyme expressed in E. coli; pH 7.5
# Source text: as §1
row,Molecule,Km
1,Adh1 enzyme (084) (Geobacillus sp. M10EXG),4.0 mM

# Target: T1, L(+)-lactate dehydrogenase from A. eutrophus (Cupriavidus necator, UniProt Q07251)
# T1 sequence (Q07251 1-349): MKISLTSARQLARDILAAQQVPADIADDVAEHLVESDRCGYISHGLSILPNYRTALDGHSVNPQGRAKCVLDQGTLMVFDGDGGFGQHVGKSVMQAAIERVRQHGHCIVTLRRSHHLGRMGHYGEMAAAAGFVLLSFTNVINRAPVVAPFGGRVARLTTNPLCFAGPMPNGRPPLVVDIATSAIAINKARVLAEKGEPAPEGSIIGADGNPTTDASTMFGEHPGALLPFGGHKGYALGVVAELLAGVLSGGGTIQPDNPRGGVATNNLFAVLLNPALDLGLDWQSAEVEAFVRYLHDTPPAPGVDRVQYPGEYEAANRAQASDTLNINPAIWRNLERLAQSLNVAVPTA
# Experiment: not given
# Details: compared with that on pyruvate; cited from earlier work
row,Molecule,Activity (%) of L(+)-lactate dehydrogenase from A. eutrophus
1,CCC(=O)C(=O)O [2-Oxobutyrate],107.0%
2,O=C(O)CCC(=O)C(=O)O [2-Oxoglutarate],79.6%
3,CCCC(=O)C(=O)O [2-Oxovalerate],125.0%
4,O=C(O)C(=O)CF [3-Fluoropyruvate],33.6%
5,CC(C)C(=O)C(=O)O [3-Methyl-2-oxobutyrate],28.5%

# Target: T2, L(+)-lactate dehydrogenase from rabbit muscle (Oryctolagus cuniculus, UniProt P13491)
# T2 construct: rabbit muscle; host or cells: rabbit muscle
# Experiment: not given
# Details: compared with that on pyruvate; cited from earlier work
row,Molecule,Activity (%) of L(+)-lactate dehydrogenase from rabbit muscle
1,O=CC(=O)O [Glyoxylate],23.9%

# Target: homoserine kinase (Escherichia coli, UniProt P00547)
# Sequence (P00547 whole entry): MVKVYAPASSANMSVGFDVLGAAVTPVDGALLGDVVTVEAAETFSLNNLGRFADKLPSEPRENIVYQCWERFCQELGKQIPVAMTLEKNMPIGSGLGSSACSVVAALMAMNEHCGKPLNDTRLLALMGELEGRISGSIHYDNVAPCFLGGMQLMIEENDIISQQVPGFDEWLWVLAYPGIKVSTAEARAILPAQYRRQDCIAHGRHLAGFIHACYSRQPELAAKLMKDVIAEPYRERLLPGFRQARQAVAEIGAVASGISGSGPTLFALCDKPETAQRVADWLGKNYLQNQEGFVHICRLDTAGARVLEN
# Experiment: not given
# Details: cited from earlier work
row,Molecule,Km
1,N[C@H](CCO)C(=O)O [D-homoserine],31.8 ± 7.2 mM
2,"N[C@H](CO)CCO [L-2-amino-1,4-butanediol]",11.6 ± 6.5 mM
3,CCOC(=O)[C@@H](N)CCO [L-homoserine ethyl ester],1.9 ± 0.5 mM
4,CC(C)COC(=O)[C@@H](N)CCO [L-homoserine isobutyl ester],6.9 ± 1.1 mM
5,CC(C)OC(=O)[C@@H](N)CCO [L-homoserine isopropyl ester],1.2 ± 0.5 mM
6,COC(=O)[C@@H](N)CCO [L-homoserine methyl ester],4.9 ± 2 mM
7,CCCOC(=O)[C@@H](N)CCO [L-homoserine n-propyl ester],3.5 ± 0.4 mM
8,N[C@@H](CCO)C(=O)O [L-homoserine],0.14 ± 0.04 mM
